Measured values from patent publication US6479531B1, “Gastrin and cholecystokinin receptor ligands” (James Black Foundation Limited, priority 1998, dated 2002).

biological target: T1, CCKB receptor (Mus musculus, UniProt P56481); experiment: CCKB receptor radioligand binding assay in mouse cortical membranes; settings: [125I]-CCK8(S) 200 pM, 150 min at 21±3°
T1 construct: The whole brains from male mice (CD1 22-25 g; Charles River) were removed; from tissue; host or cells: cerebral cortex membranes of male CD1 mice
T1 sequence (P56481 1-453): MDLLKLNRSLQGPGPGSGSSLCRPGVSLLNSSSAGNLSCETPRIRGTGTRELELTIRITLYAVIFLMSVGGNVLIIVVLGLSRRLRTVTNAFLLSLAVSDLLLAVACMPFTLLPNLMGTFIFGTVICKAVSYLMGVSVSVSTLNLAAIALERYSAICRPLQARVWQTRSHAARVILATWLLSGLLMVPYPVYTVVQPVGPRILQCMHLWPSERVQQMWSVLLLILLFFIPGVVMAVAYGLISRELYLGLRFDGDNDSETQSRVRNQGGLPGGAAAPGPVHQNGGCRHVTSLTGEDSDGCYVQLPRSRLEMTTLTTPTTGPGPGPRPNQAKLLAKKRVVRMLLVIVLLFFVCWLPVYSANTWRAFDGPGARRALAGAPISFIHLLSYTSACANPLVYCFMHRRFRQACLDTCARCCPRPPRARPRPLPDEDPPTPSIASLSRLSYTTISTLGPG
Procedure: The compounds of the examples were tested for binding at the CCKB receptor in mouse cortical membranes by means of a radioligand binding assay. The procedure was as follows:
The whole brains from male mice (CD1 22-25 g; Charles River) were removed and placed in ice-cold buffer (pH 7.2 @ 21±3°) of the following composition (mM); 10 HEPES, 130 NaCl, 4.7 KCl, 5 MgCl2, 1 EDTA and containing 0.25 gl^−1 bacitracin. The cortex was dissected, weighed and homogenised in 40 ml ice-cold buffer using a Teflon-in-glass homogeniser. The homogenate was centrifuged at 39800 g for 20 min […], the supernatant discarded and the pellet resuspended by homogenisation in fresh buffer. The homogenate was recentrifuged (39800 g, 20 min @ 4°) and the final pellet was resuspended in HEPES buffer to give a tissue concentration of 20 mg ml^−1 (original wet weight).
The assay was terminated by rapid filtration through pre-soaked Whatman GF/B filters using a Brandell Cell Harvester. The filters were washed (3×3 ml) with ice-cold 50 mM Tris-HCl (pH 7.4 @ 4° C.) and bound radioactivity determined by counting (1 min) in a gamma-counter.

Molecule	CCKB pKi
5-[(2-Adamantan-1-ylmethyl-5-phenyl-1H-pyrrole-3-carbonyl)-amino-methyl]-isophthalic Acid [Example 9]	5.88

same assay, conditions: [125I]-CCK8(S) 200 pM, 150 min at 21±3°, read-out: CCKB pKi (converted)

Molecule	Ki [nM]
O=C(O)c1cc(NC(=O)c2nc(C3CCCCC3)[nH]c2CC2CCCCCC2)cc(C(=O)O)c1 [Example 34, 5-[(5-Cycloheptylmethyl-2-cyclohexyl-1H-imidazole-4-carbonyl)-amino]-isophthalic Acid]	1580
CN(C)c1ccc(-c2nc(C(=O)Nc3cc(C(=O)O)cc(C(=O)O)c3)c(CC3CCCCCC3)[nH]2)cc1 [Example 31, 5-[(5-Cycloheptylmethyl-2-(4-dimethylamino-phenyl)-1H-imidazole-4-carbonyl)-amino]-isophthalic Acid]	1660
O=C(O)c1cccc(NC(=O)c2[nH]c(-c3ccc4ccccc4c3)nc2CC2CCCCCC2)c1 [Example 21, 3-[(5-Cycloheptylmethyl-2-naphthalen-2-yl-1H-imidazole-4-carbonyl)-amino]-benzoic Acid]	813
O=C(Nc1cc(CO)cc(CO)c1)c1[nH]c(-c2ccc3ccccc3c2)nc1CC1CCCCCC1 [Example 22, 5-Cycloheptylmethyl-2-naphthalen-2-yl-1H-imidazole-4-carboxylic Acid (3,5-bis-hydroxymethyl-phenyl)-amide]	4070
O=C(O)c1cc(NC(=O)c2nc(CCc3ccccc3)[nH]c2CC2CCCCCC2)cc(C(=O)O)c1 [Example 27, 5-[(5-Cycloheptylmethyl-2-(2-phenyl-ethyl)-1H-imidazole-4-carbonyl)-amino]-isophthalic Acid]	3550
O=C(O)c1cc(NC(=O)c2[nH]c(-c3ccc4ccccc4c3)nc2CC2CCCCCC2)cc(C(=O)O)c1 [Example 20, 5-[(5-Cycloheptylmethyl-2-naphthalen-2-yl-1H-imidazole-4-carbonyl)-amino]-isophthalic Acid]	251
O=C(O)c1cccc(NC(=O)c2nc(C3CCCCC3)[nH]c2CCc2ccccc2)c1 [Example 88, 3-[(2-Cyclohexyl-5-phenethyl-1H-imidazole-4-carbonyl)-amino]-benzoic Acid]	6610
Cc1ccccc1-c1nc(C(=O)Nc2cccc(S(=O)(=O)NC(=O)c3ccccc3)c2)c(CCC23CC4CC(CC(C4)C2)C3)[nH]1 [Example 100, 5-(2-Adamantan-1-yl-ethyl)-2-o-tolyl-1H-imidazole-4-carboxylic Acid (3-benzoylsulfamoyl-phenyl)-amide]	117
Cc1ccccc1-c1nc(C(=O)Nc2cccc(CC(=O)O)c2)c(CCC23CC4CC(CC(C4)C2)C3)[nH]1 [Example 83, (3-{[5-(2-Adamantan-1-yl-ethyl)-2-o-tolyl-1H-imidazole-4-carbonyl]-amino}-phenyl)-acetic Acid]	2.24
O=C(O)c1cccc(NC(=O)c2nc(-c3ccc(Cl)c(Cl)c3)[nH]c2CCC23CC4CC(CC(C4)C2)C3)c1 [Example 68, 3-{[5-(2-Adamantan-1-yl-ethyl)-2-(3,4-dichloro-phenyl)-1H-imidazole-4-carbonyl]-amino}-benzoic Acid]	468
O=C(Nc1cccc(-c2nnn[nH]2)c1)c1nc(C2CCCCC2)[nH]c1CCC12CC3CC(CC(C3)C1)C2 [Example 130]	9.55
O=C(O)c1cccc(NC(=O)c2cc(-c3ccccc3)[nH]c2CCC23CC4CC(CC(C4)C2)C3)c1 [Example 19, 3-{[2-(2-Adamantan-1-yl-ethyl)-5-phenyl-1H-pyrrole-3-carbonyl]-amino}-benzoic Acid]	447
COc1cccc(-c2nc(C(=O)Nc3cc(C(=O)O)cc(C(=O)O)c3)c(CC3CCCCCC3)[nH]2)c1 [Example 28, 5-[(5-Cycloheptylmethyl-2-(3-methoxy-phenyl)-1H-imidazole-4-carbonyl)-amino]-isophthalic Acid]	1230
O=C(O)CNC(=O)c1nc(-c2ccccc2F)[nH]c1CCC12CC3CC(CC(C3)C1)C2 [Example 53, 2-{[5-(2-Adamantan-1-yl-ethyl)-2-(2-fluoro-phenyl)-1H-imidazole-4-carbonyl]-amino}-acetic Acid]	1660
O=C(O)c1cccc(NC(=O)c2nc(-c3ccncc3)[nH]c2CCC23CC4CC(CC(C4)C2)C3)c1 [Example 180, 3-{[5-(2-Adamantan-1-yl-ethyl)-2-pyridine-4-yl-1H-imidazole-4-carbonyl]-amino}-benzoic Acid]	1860
O=C(O)CCNC(=O)c1cc(-c2ccccc2)[nH]c1CC12CC3CC(CC(C3)C1)C2 [Example 10, 3-[(2-Adamantan-1-ylmethyl-5-phenyl-1H-pyrrole-3-carbonyl)-amino]-propionic Acid]	3020
O=C(O)c1cc(NC(=O)c2[nH]c(-c3ccc4[nH]ccc4c3)nc2CC2CCCCCC2)cc(C(=O)O)c1 [Example 30, 5-[(5-Cycloheptylmethyl-2-(1H-indol-5-yl)-1H-imidazole-4-carbonyl)-amino]-isophthalic Acid]	1070
O=C(Nc1cccc(CO)c1)c1nc(-c2ccccc2)[nH]c1CCC12CC3CC(CC(C3)C1)C2 [Example 48, 5-(2-Adamantan-1-yl-ethyl)-2-phenyl-1H-imidazole-4-carboxylic Acid (3-hydroxymethyl-phenyl)-amide]	269
O=C(Nc1cc(-c2nnn[nH]2)cc(-c2nnn[nH]2)c1)c1cc(-c2ccc3ccccc3c2)[nH]c1CC12CC3CC(CC(C3)C1)C2 [Example 5, 2-Adamantan-1-ylmethyl-5-naphthalen-2-yl-1H-pyrrole-3-carboxylic Acid [3,5-bis-(1H-tetrazol-5-yl)-phenyl]-amide]	229
O=C(Nc1cccc(-c2nnn[nH]2)c1)c1nc(-c2ccccc2)[nH]c1CCC12CC3CC(CC(C3)C1)C2 [Example 49]	182
O=C(O)c1cc(NC(=O)c2nc(-c3ccc4ccccc4c3)[nH]c2CCC23CC4CC(CC(C4)C2)C3)cc(C(=O)O)c1 [Example 44, 5-{[5-(2-Adamantan-1-yl-ethyl)-2-naphthalene-2-yl-1H-imidazole-4-carbonyl]-amino}-isophthalic Acid]	120
Cc1ccccc1-c1nc(C(=O)Nc2cccc(C(=O)O)c2)c(CCC23CC4CC(CC(C4)C2)C3)s1 [Example 121, 3-{[5-(2-Adamanatan-1-yl-ethyl)-2-o-tolyl-thiazole-4-carbonyl]-amino}-benzoic Acid]	2400
O=C(O)c1cccc(NC(=O)c2nc(-c3cc(Cl)cc(Cl)c3)[nH]c2CCC23CC4CC(CC(C4)C2)C3)c1 [Example 147, 3-{[5-(2-Adamantan-1-yl-ethyl)-2-(3,5-dichlorophenyl)-1H-imidazole-4-carbonyl]-amino}-benzoic Acid]	912
O=C(O)c1cc(NC(=O)c2cc(-c3ccccc3)[nH]c2CCC23CC4CC(CC(C4)C2)C3)cc(C(=O)O)c1 [Example 17, 5-{[2-(2-Adamantan-1-yl-ethyl)-5-phenyl-1H-pyrrole-3-carbonyl]-amino}-isophthalic Acid]	209
O=C(O)c1cccc(NC(=O)c2cc(-c3ccccc3)[nH]c2CC23CC4CC(CC(C4)C2)C3)c1 [Example 3, 3-[(2-Adamantan-1-ylmethyl-5-phenyl-1H-pyrrole-3-carbonyl)-amino]-benzoic Acid]	1450
Cc1ncccc1-c1nc(C(=O)Nc2cccc(C(=O)O)c2)c(CCC23CC4CC(CC(C4)C2)C3)[nH]1 [Example 181, 3-{[5-(2-Adamantan-1-yl-ethyl)-2-(2-methyl-pyridine-3-yl)-1H-imidazole-4-carbonyl]-amino}-benzoic Acid]	676
O=C(O)c1cccc(CNC(=O)c2nc(-c3ccccc3)[nH]c2CCC23CC4CC(CC(C4)C2)C3)c1 [Example 85, 3-({[5-(2-Adamantan-1-yl-ethyl)-2-phenyl-1H-imidazole-4-carbonyl]-amino}-methyl)-benzoic Acid]	479
Cc1ccccc1-c1nc(C(=O)Nc2cc(C(=O)O)ccc2Cl)c(CCC23CC4CC(CC(C4)C2)C3)[nH]1 [Example 237, 3-{[5-(2-Adamantan-1-yl-ethyl)-2-o-tolyl-1H-imidazole-4-carbonyl]-amino}-4-chloro-benzoic Acid]	7590
O=C(O)c1cccc(NC(=O)c2nc[nH]c2CCC23CC4CC(CC(C4)C2)C3)c1 [Example 77, 3-{[5-(2-Adamantan-1-yl-ethyl)-1H-imidazole-4-carbonyl]-amino}-benzoic Acid]	10000
O=C(Nc1cc(-c2nnn[nH]2)cc(-c2nnn[nH]2)c1)c1cc(-c2ccc3ccccc3c2)[nH]c1CC1CCCCCC1 [Example 15, 2-Cycloheptylmethyl-5-naphthalen-2-yl-1H-pyrrole-3-carboxylic Acid [3,5-bis-(1H-tetrazol-5-yl)-phenyl]-amide]	182
